{"source": "paper PMC11714206", "about": "“Massively Parallel Screening of Toll/Interleukin‐1 Receptor (TIR)‐Derived Peptides Reveals Multiple Toll‐Like Receptors (TLRs)‐Targeting Immunomodulatory Peptides” (Advanced Science, 2024)", "target": "T1, MyD88^TIR (Homo sapiens, UniProt Q99836)", "T1 construct": "MyD88 (residues 148–296); 6xHis; made in house; host or cells: E. coli BL21 (DE3)", "T1 sequence (Q99836 148-296)": "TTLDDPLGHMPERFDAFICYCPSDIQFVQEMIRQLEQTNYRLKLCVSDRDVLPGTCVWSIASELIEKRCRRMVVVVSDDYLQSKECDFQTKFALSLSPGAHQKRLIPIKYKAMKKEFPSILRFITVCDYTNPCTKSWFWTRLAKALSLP", "assay": "T‐Surf phage library (P8 and P3) selection against MyD88^TIR, four rounds, NGS read counts", "type": "binding", "conditions": "for P8_MyD88 Rank (after) / P8_MyD88 Rank (before): P8 library; for Population: P8_MyD88 pool: P8 T-Surf phage library, 4th round of selection against MyD88 TIR, share of NGS reads", "experimental": "T‐Surf libraries were screened against the immobilized TIR domains of two major human TLR adaptor proteins, MAL^TIR and MyD88^TIR, allowing cross‐species selection of TIR‐binding motifs with 190 946 TIR‐derived peptides in a single binding assay (Scheme 1). Enriched phage pools from the fourth round of selection were analyzed using NGS after barcoding the peptide‐coding regions of the phage pools.\nPhage display screening was performed by coating two wells of a 96‐well plate (Maxisorp, Thermo Fisher Scientific) with 100 µL of 5 µg mL^−1 TIR domains overnight; then, the coated wells were blocked with 200 µL of blocking buffer (0.2% BSA in PBS) and set aside for 1 h at 4 °C with gentle shaking. Next, 100 µL of the phage library was added to the wells and incubated for 1 h at room temperature (RT; 20 – 22 °C) with gentle shaking. The plate was washed four times with PBS containing 0.5% Tween‐20; the bound phages were eluted by adding 100 µL of 100 mM HCl to each well. The elute was neutralized with 10 µL of 1.0 M Tris‐HCl (pH 11.0). E. coli TG1 cells were grown to the log phase (A600 = ≈0.6), and 1 mL of the culture was incubated with 100 µL of the eluted phages for 30 min at 37 °C, with shaking at 200 rpm. Next, 1 µL of M13KO7 helper phages was added, followed by incubation for 45 min at 37 °C, with shaking. Subsequently, the cells were transferred to 25 mL of 2× yeast extract tryptone/carbenicillin/kanamycin medium and incubated overnight at 37 °C with shaking at 200 rpm. The amplified phages were precipitated with 20% PEG‐8000/2.5 M NaCl to be used for the next round of selection.\nThe naïve T‐Surf libraries in P8 and P3 and the enriched phage pools after four rounds were barcoded for NGS as previously described.^[ [59] ^] Briefly, 5 µL of the phage pool was used as a template for 20 cycles of a 50 µL PCR reaction using […] each of forward and reverse barcoded primers and PrimeSTAR Max DNA Polymerase. The PCR products were purified using Expin Gel SV (GeneAll). The NGS samples were quantified using qPCR, following the qPCR Quantification Protocol Guide (KAPA Library Quantification kits for Illumina Sequencing Platform), and qualified using the TapeStation High Sensitivity D1000 ScreenTape (Agilent Technologies). The indexed libraries were further sequenced by Macrogen (Seoul, Republic of Korea) using the NovaSeq platform (Illumina) with 100 bp paired‐end reads. The reads were demultiplexed by barcodes and filtered for an average Phred quality score of at least 30, followed by trimming the flanking consensus sequences using Cutadapt (version 2.3). Peptide sequence populations were analyzed according to the read counts.", "key": {"[1]": {"conditions": "P8_MyD88: rank by count after grouping"}, "[2]": {"conditions": "P8_MyD88: rank by count before grouping"}, "[3]": {"conditions": "4R selection against MyD88, rank after grouping"}, "[4]": {"conditions": "4R selection against MyD88, rank before grouping"}, "[5]": {"conditions": "selection against MyD88, rank after grouping"}, "[6]": {"conditions": "selection against MyD88, rank before grouping"}, "[7]": {"conditions": "P8_MyD88: rank by NGS read count after grouping"}, "[8]": {"conditions": "P8_MyD88: rank by NGS read count before grouping"}, "[9]": {"conditions": "selection against MyD88 TIR, rank by count after grouping"}, "[10]": {"conditions": "selection against MyD88 TIR, rank by count before grouping"}, "[11]": {"conditions": "selection against MyD88, rank by count after grouping"}, "[12]": {"conditions": "selection against MyD88, rank by count before grouping"}}}
{"sequence": "DPQDLDRFYERLLSLL", "values": [{"measurement": "Rank (after)", "setting": "[1]", "value": 428}, {"measurement": "Rank (before)", "setting": "[2]", "value": 2840}]}
{"sequence": "DPQDLDRSYERLVSLC", "values": [{"measurement": "P8_MyD88 Rank (after)", "setting": "[3]", "value": 670}, {"measurement": "P8_MyD88 Rank (before)", "setting": "[4]", "value": 2842}]}
{"sequence": "DPQDLDWCYERLVSRC", "values": [{"measurement": "Rank (after)", "setting": "[1]", "value": 461}, {"measurement": "Rank (before)", "setting": "[2]", "value": 2817}]}
{"sequence": "DPQDLDWFFERLVSLL", "values": [{"measurement": "Rank (after)", "setting": "[1]", "value": 117}, {"measurement": "Rank (before)", "setting": "[2]", "value": 707}]}
{"sequence": "DPQDLDWFLNVWLTW", "values": [{"measurement": "P8_MyD88 Rank (after)", "setting": "[5]", "value": 575}, {"measurement": "P8_MyD88 Rank (before)", "setting": "[6]", "value": 2743}]}
{"sequence": "DPQDLDWFSERLVILF", "values": [{"measurement": "Rank (after)", "setting": "[7]", "value": 1012}, {"measurement": "Rank (before)", "setting": "[8]", "value": 2747}]}
{"sequence": "DPQDLDWFWVRLIEAL", "values": [{"measurement": "P8_MyD88 Rank (after)", "setting": "[5]", "value": 493}, {"measurement": "P8_MyD88 Rank (before)", "setting": "[6]", "value": 2746}]}
{"sequence": "DPQDLDWFYARLVRLF", "values": [{"measurement": "P8_MyD88 Rank (after)", "setting": "[9]", "value": 270}, {"measurement": "P8_MyD88 Rank (before)", "setting": "[10]", "value": 2751}]}
{"sequence": "DPQDLDWFYDRLLYSLHVTE", "values": [{"measurement": "Rank (after)", "setting": "[1]", "value": 420}, {"measurement": "Rank (before)", "setting": "[2]", "value": 1088}]}
{"sequence": "DPQDLDWFYECPVSMF", "values": [{"measurement": "P8_MyD88 Rank (after)", "setting": "[5]", "value": 535}, {"measurement": "P8_MyD88 Rank (before)", "setting": "[6]", "value": 2754}]}
{"sequence": "DPQDLDWFYEHLFSQM", "values": [{"measurement": "Rank (after)", "setting": "[1]", "value": 411}, {"measurement": "Rank (before)", "setting": "[2]", "value": 2801}]}
{"sequence": "DPQDLDWFYEHLVSLL", "values": [{"measurement": "Rank (after)", "setting": "[1]", "value": 114}, {"measurement": "Rank (before)", "setting": "[2]", "value": 570}]}
{"sequence": "DPQDLDWFYERLASGI", "values": [{"measurement": "Rank (after)", "setting": "[7]", "value": 882}, {"measurement": "Rank (before)", "setting": "[8]", "value": 2782}]}
{"sequence": "DPQDLDWFYERLASLL", "values": [{"measurement": "Rank (after)", "setting": "[1]", "value": 135}, {"measurement": "Rank (before)", "setting": "[2]", "value": 720}]}
{"sequence": "DPQDLDWFYERLEPV", "values": [{"measurement": "P8_MyD88 Rank (after)", "setting": "[5]", "value": 530}, {"measurement": "P8_MyD88 Rank (before)", "setting": "[6]", "value": 2783}]}
{"sequence": "DPQDLDWFYERLFSQT", "values": [{"measurement": "P8_MyD88 Rank (after)", "setting": "[9]", "value": 269}, {"measurement": "P8_MyD88 Rank (before)", "setting": "[10]", "value": 2858}]}
{"sequence": "DPQDLDWFYERLFTQM", "values": [{"measurement": "P8_MyD88 Rank (after)", "setting": "[9]", "value": 267}, {"measurement": "P8_MyD88 Rank (before)", "setting": "[10]", "value": 2763}]}
{"sequence": "DPQDLDWFYERLISRILQ", "values": [{"measurement": "P8_MyD88 Rank (after)", "setting": "[5]", "value": 549}, {"measurement": "P8_MyD88 Rank (before)", "setting": "[6]", "value": 2787}]}
{"sequence": "DPQDLDWFYERLLS", "values": [{"measurement": "Rank (after)", "setting": "[1]", "value": 471}, {"measurement": "Rank (before)", "setting": "[2]", "value": 2786}]}
{"sequence": "DPQDLDWFYERLLSLS", "values": [{"measurement": "Rank (after)", "setting": "[1]", "value": 422}, {"measurement": "Rank (before)", "setting": "[2]", "value": 2764}]}
{"sequence": "DPQDLDWFYERLLSR", "values": [{"measurement": "P8_MyD88 Rank (after)", "setting": "[9]", "value": 236}, {"measurement": "P8_MyD88 Rank (before)", "setting": "[10]", "value": 467}]}
{"sequence": "DPQDLDWFYERLVAC", "values": [{"measurement": "Rank (after)", "setting": "[7]", "value": 1005}, {"measurement": "Rank (before)", "setting": "[8]", "value": 2779}]}
{"sequence": "DPQDLDWFYERLVILF", "values": [{"measurement": "Population", "value": 0.0131, "unit": "%"}]}
{"sequence": "DPQDLDWFYERLVNLF", "values": [{"measurement": "Population", "value": 0.00925, "unit": "%"}]}
{"sequence": "DPQDLDWFYERLVNLL", "values": [{"measurement": "Rank (after)", "setting": "[1]", "value": 98}, {"measurement": "Rank (before)", "setting": "[2]", "value": 349}]}
{"sequence": "DPQDLDWFYERLVSL", "values": [{"measurement": "P8_MyD88 Rank (after)", "setting": "[9]", "value": 233}, {"measurement": "P8_MyD88 Rank (before)", "setting": "[10]", "value": 716}]}
{"sequence": "DPQDLDWFYERLVSLFL", "values": [{"measurement": "Population", "value": 0.02, "unit": "%"}]}
{"sequence": "DPQDLDWFYERLVSPL", "values": [{"measurement": "Rank (after)", "setting": "[1]", "value": 99}, {"measurement": "Rank (before)", "setting": "[2]", "value": 396}]}
{"sequence": "DPQDLDWFYERLVSQM", "values": [{"measurement": "Rank (after)", "setting": "[1]", "value": 183}, {"measurement": "Rank (before)", "setting": "[2]", "value": 466}]}
{"sequence": "DPQDLDWFYERQVRLF", "values": [{"measurement": "Rank (after)", "setting": "[7]", "value": 915}, {"measurement": "Rank (before)", "setting": "[8]", "value": 2794}]}
{"sequence": "DPQDLDWFYERQVSLL", "values": [{"measurement": "Rank (after)", "setting": "[1]", "value": 106}, {"measurement": "Rank (before)", "setting": "[2]", "value": 568}]}
{"sequence": "DPQDLDWFYERREPA", "values": [{"measurement": "P8_MyD88 Rank (after)", "setting": "[3]", "value": 662}, {"measurement": "P8_MyD88 Rank (before)", "setting": "[4]", "value": 2790}]}
{"sequence": "DPQDLDWFYERRVCLF", "values": [{"measurement": "P8_MyD88 Rank (after)", "setting": "[11]", "value": 733}, {"measurement": "P8_MyD88 Rank (before)", "setting": "[12]", "value": 2791}]}
{"sequence": "DPQDLDWFYERVVGLF", "values": [{"measurement": "Rank (after)", "setting": "[7]", "value": 914}, {"measurement": "Rank (before)", "setting": "[8]", "value": 2759}]}
{"sequence": "DPQDLDWFYETSGEPD", "values": [{"measurement": "Rank (after)", "setting": "[7]", "value": 911}, {"measurement": "Rank (before)", "setting": "[8]", "value": 2804}]}
{"sequence": "DPQDLDWFYKRLVSLL", "values": [{"measurement": "Rank (after)", "setting": "[1]", "value": 121}, {"measurement": "Rank (before)", "setting": "[2]", "value": 724}]}
{"sequence": "DPQDLDWIYERLVCLF", "values": [{"measurement": "P8_MyD88 Rank (after)", "setting": "[11]", "value": 732}, {"measurement": "P8_MyD88 Rank (before)", "setting": "[12]", "value": 2830}]}
{"sequence": "DPQDLDWIYERLVSRF", "values": [{"measurement": "Rank (after)", "setting": "[1]", "value": 436}, {"measurement": "Rank (before)", "setting": "[2]", "value": 2831}]}
{"sequence": "DPQDLDWLYERLVRLF", "values": [{"measurement": "P8_MyD88 Rank (after)", "setting": "[9]", "value": 238}, {"measurement": "P8_MyD88 Rank (before)", "setting": "[10]", "value": 2828}]}
{"sequence": "DPQDLDWLYERLVSLF", "values": [{"measurement": "Population", "value": 0.00617, "unit": "%"}]}
{"sequence": "DPQDLDWLYERPVSQF", "values": [{"measurement": "P8_MyD88 Rank (after)", "setting": "[5]", "value": 552}, {"measurement": "P8_MyD88 Rank (before)", "setting": "[6]", "value": 2816}]}
{"sequence": "DPQDLDWVYERLVSLI", "values": [{"measurement": "P8_MyD88 Rank (after)", "setting": "[9]", "value": 271}, {"measurement": "P8_MyD88 Rank (before)", "setting": "[10]", "value": 2825}]}
{"sequence": "DPQDLECFYERRVSLF", "values": [{"measurement": "Rank (after)", "setting": "[7]", "value": 916}, {"measurement": "Rank (before)", "setting": "[8]", "value": 2845}]}
{"sequence": "DPQDLECVYERLVSLF", "values": [{"measurement": "Rank (after)", "setting": "[7]", "value": 1006}, {"measurement": "Rank (before)", "setting": "[8]", "value": 2846}]}
{"sequence": "DPQDLELFYEQLVRPF", "values": [{"measurement": "Rank (after)", "setting": "[1]", "value": 459}, {"measurement": "Rank (before)", "setting": "[2]", "value": 2844}]}
